Experiment [1] deals with HCT116 (human colorectal carcinoma) cells. As to conditions: cited from earlier work; for IC50: previously reported (footnote a, Barker et al. 2013) or background art table; for less potent than vinblastine: cell growth inhibition, background art (Leggans 2012; Barker 2012).
For experiment [2], the system named is HCT116/VM46 (a vinblastine-resistant strain of HCT116) cells. To be noted: previously reported (footnote a, Barker et al. 2013) or background art table; cited from earlier work.
Experiment [3] concerns L1210 (mouse lymphocytic leukemia) cells. In words: Cell growth inhibition assay, L1210. It counts as cell-based. As to conditions: 72 hours incubation, phosphatase assay. The protocol: (§1) Compounds were tested for their cell growth inhibition of L1210 (ATCC no. CCL-219, mouse lymphocytic leukemia) cells, HCT116 (ATCC no. CCL-247, human colorectal carcinoma) cells, and HCT116/VM46 (a vinblastine-resistant strain of HCT116) cells in culture. A population of cells (>1×10^6 cells/mL as determined with a hemocytometer) was diluted with an appropriate amount of Dulbecco's Modified Eagle Medium (DMEM, Gibco) containing 10% fetal bovine serum (FBS, Gibco) to a final concentration of 30000 cells/mL.
(§2) To each well of a 96-well plate (Corning Costar), 100 μL of the cell media solution was added with a multichannel pipet. The cultures were incubated at 37° C. in an atmosphere of 5% CO2 and 95% humidified air for 24 hours. The test compounds were added to the plate as follows: test substances were diluted in DMSO to a concentration of 1 mM and 10-fold serial dilutions were performed on a separate 96-well plate. Fresh culture medium (100 μL) was added to each well of cells to constitute 200 μL of medium per well followed by 2 μL of each test agent. Compounds were tested in duplicate (n=2-18 times) at six concentrations between 0-1000 nM or 0-10000 nM. Following addition, cultures were incubated for an additional 72 hours.
(§3) A phosphatase assay was used to establish the IC50 values as follows: the media in each cell was removed and 100 μL of phosphatase solution (100 mg phosphatase substrate in 30 mL of 0.1 M NaOAc, pH 5.5, 0.1% Triton X-100 buffer) was added to each well. The plates were incubated at 37° C. for either 5 minutes (L1210) or 15 minutes (HCT116 and HCT116/VM46). After the given incubation time, 50 μL of 0.1 N NaOH was added to each well and the absorption at 405 nm was determined using a 96 well plate reader. As the absorption is directly proportional to the number of living cells, the IC50 values were calculated and the reported values represent of the average of 4-36 determinations (SD±10%).

In experiment [4] the test system is HCT116 (human colorectal carcinoma) cells. Kind of experiment: cells. It counts as cell-based. As to conditions: read-out: IC50, HCT116. As for the experimental part:
as §1, §2, §3

Experiment [5] deals with HCT116/VM46 (a vinblastine-resistant strain of HCT116) cells. In words: Cell growth inhibition assay, HCT116/VM46. The format is cell-based, human. To be noted: 72 hours incubation, phosphatase assay, Pgp-overexpressing resistant line. As for the experimental part: as §1, §2, §3
Experiment [6] concerns vinblastine sensitive tumor cell lines (L1210 and HCT116). Kind of experiment: Cell growth inhibition, vinblastine-sensitive lines stated together. It counts as cell-based. As to conditions: L1210 and HCT116, range over both lines; read-out: IC50's against vinblastine-sensitive tumor cell lines. The protocol: as §1, §2, §3
The mark [7] stands for this setting: 72 hours incubation, phosphatase assay.

Usually IC50 stands for the concentration at which inhibition is half-maximal.

Molecules are shown by their SMILES. Like-named read-outs stand apart in the source and are kept apart here. Bounds are passed on as bounds.

Turning to `CC[C@@H]1C[C@H]2CN(CCc3c([nH]c4ccccc34)[C@@](C(=O)OC)(c3cc4c(cc3OC)N(C)[C@H]3[C@@](O)(C(=O)OC)[C@H](OC(C)=O)[C@]5(CC)C=CCN6CC[C@]43[C@@H]65)C2)C1` [Compound 4, reference compound], the IC50 in experiment [1] is 60 nM; in experiment [2], 600 nM.
For `CC[C@]1(N=[N+]=[N-])C[C@H]2CN(CCc3c([nH]c4ccccc34)[C@@](C(=O)OC)(c3cc4c(cc3OC)N(C)[C@H]3[C@@](O)(C(=O)OC)[C@H](OC(C)=O)[C@]5(CC)C=CCN6CC[C@]43[C@@H]65)C2)C1` [Compound 5], in experiment [1], the “less potent than vinblastine” value is recorded as 100 fold and the 50% inhibitory concentration (IC50) is 690 nM. In addition, the IC50 in experiment [2] was 5500 nM.
On to `CC[C@]1(N)C[C@H]2CN(CCc3c([nH]c4ccccc34)[C@@](C(=O)OC)(c3cc4c(cc3OC)N(C)[C@H]3[C@@](O)(C(=O)OC)[C@H](OC(C)=O)[C@]5(CC)C=CCN6CC[C@]43[C@@H]65)C2)C1` [Compound 6, 20′-aminovinblastine], for which, in experiment [1], the “less potent than vinblastine” value is given as 100 fold and the IC50 was 600 nM. Also, the IC50 in experiment [2] was over 10000 nM.
Turning to `CC[C@]1(NC(N)=O)C[C@H]2CN(CCc3c([nH]c4ccccc34)[C@@](C(=O)OC)(c3cc4c(cc3OC)N(C)[C@H]3[C@@](O)(C(=O)OC)[C@H](OC(C)=O)[C@]5(CC)C=CCN6CC[C@]43[C@@H]65)C2)C1` [Compound 7, reference compound], the IC50 is 7.5 nM in experiment [1] and 4400 nM in experiment [2].
As for `CC[C@]1(NC(=O)N2Cc3ccc(NC(C)=O)cc3C2)C[C@H]2CN(CCc3c([nH]c4ccccc34)[C@@](C(=O)OC)(c3cc4c(cc3OC)N(C)[C@H]3[C@@](O)(C(=O)OC)[C@H](OC(C)=O)[C@]5(CC)C=CCN6CC[C@]43[C@@H]65)C2)C1` [Compound 40], the IC50 in experiment [3] is 0.47 nM; in experiment [4] (setting [7]), 0.5 nM; in experiment [5], 9.4 nM; in experiment [6] it was 0.47 to 0.5 nM.
For `CCC(=O)Nc1ccc2c(c1)CN(C(=O)N[C@@]1(CC)C[C@H]3CN(CCc4c([nH]c5ccccc45)[C@@](C(=O)OC)(c4cc5c(cc4OC)N(C)[C@H]4[C@@](O)(C(=O)OC)[C@H](OC(C)=O)[C@]6(CC)C=CCN7CC[C@]54[C@@H]76)C3)C1)C2` [Compound 41], the IC50 in experiment [3] worked out at 0.46 nM; in experiment [4] (setting [7]) it was 0.54 nM; in experiment [5] it was 7.7 nM.
For `CC[C@]1(NC(=O)N2Cc3ccc(NC(=O)C(C)C)cc3C2)C[C@H]2CN(CCc3c([nH]c4ccccc34)[C@@](C(=O)OC)(c3cc4c(cc3OC)N(C)[C@H]3[C@@](O)(C(=O)OC)[C@H](OC(C)=O)[C@]5(CC)C=CCN6CC[C@]43[C@@H]65)C2)C1` [Compound 43] the same measures were 0.39 nM, 0.49 nM and 6.4 nM.
For `CC[C@]1(NC(=O)N2Cc3ccc(NC(=O)C(C)(C)C)cc3C2)C[C@H]2CN(CCc3c([nH]c4ccccc34)[C@@](C(=O)OC)(c3cc4c(cc3OC)N(C)[C@H]3[C@@](O)(C(=O)OC)[C@H](OC(C)=O)[C@]5(CC)C=CCN6CC[C@]43[C@@H]65)C2)C1` [Compound 44] the same measures were 0.39 nM, 0.47 nM and 5.3 nM.
Regarding `CCCCCC(=O)Nc1ccc2c(c1)CN(C(=O)N[C@@]1(CC)C[C@H]3CN(CCc4c([nH]c5ccccc45)[C@@](C(=O)OC)(c4cc5c(cc4OC)N(C)[C@H]4[C@@](O)(C(=O)OC)[C@H](OC(C)=O)[C@]6(CC)C=CCN7CC[C@]54[C@@H]76)C3)C1)C2` [Compound 45], the IC50 amounted to 0.44 nM in experiment [3], 0.62 nM in experiment [4] (setting [7]) and 13 nM in experiment [5].
Take `C=CC(=O)Nc1ccc2c(c1)CN(C(=O)N[C@@]1(CC)C[C@H]3CN(CCc4c([nH]c5ccccc45)[C@@](C(=O)OC)(c4cc5c(cc4OC)N(C)[C@H]4[C@@](O)(C(=O)OC)[C@H](OC(C)=O)[C@]6(CC)C=CCN7CC[C@]54[C@@H]76)C3)C1)C2` [Compound 46]: the values for the IC50 in experiment [3], in experiment [4] (setting [7]) and in experiment [5] were 0.38 nM, 0.3 nM and 7.1 nM, respectively.
Take `CC[C@]1(NC(=O)N2Cc3ccc(NC(=O)C=C(C)C)cc3C2)C[C@H]2CN(CCc3c([nH]c4ccccc34)[C@@](C(=O)OC)(c3cc4c(cc3OC)N(C)[C@H]3[C@@](O)(C(=O)OC)[C@H](OC(C)=O)[C@]5(CC)C=CCN6CC[C@]43[C@@H]65)C2)C1` [Compound 48]: the IC50 in experiment [3] was found to be 0.43 nM; in experiment [4] (setting [7]), 0.47 nM; in experiment [5], 7.4 nM.
Turning to `CC[C@]1(NC(=O)N2Cc3ccc(NC(=O)c4ccc(-c5ccccc5)cc4)cc3C2)C[C@H]2CN(CCc3c([nH]c4ccccc34)[C@@](C(=O)OC)(c3cc4c(cc3OC)N(C)[C@H]3[C@@](O)(C(=O)OC)[C@H](OC(C)=O)[C@]5(CC)C=CCN6CC[C@]43[C@@H]65)C2)C1` [Compound 51], the IC50 in experiment [3] was 5.9 nM; in experiment [4] (setting [7]) it was 6.3 nM; in experiment [5], 75 nM.
For `CC[C@]1(NC(=O)N2Cc3ccc(NC(=O)c4ccc(OC(F)(F)F)cc4)cc3C2)C[C@H]2CN(CCc3c([nH]c4ccccc34)[C@@](C(=O)OC)(c3cc4c(cc3OC)N(C)[C@H]3[C@@](O)(C(=O)OC)[C@H](OC(C)=O)[C@]5(CC)C=CCN6CC[C@]43[C@@H]65)C2)C1` [Compound 52] the same measures were 4.3 nM, 5.3 nM and 75 nM.
Take `CC[C@]1(NC(=O)N2Cc3ccc(NC(=O)c4ccc(C(C)C)cc4)cc3C2)C[C@H]2CN(CCc3c([nH]c4ccccc34)[C@@](C(=O)OC)(c3cc4c(cc3OC)N(C)[C@H]3[C@@](O)(C(=O)OC)[C@H](OC(C)=O)[C@]5(CC)C=CCN6CC[C@]43[C@@H]65)C2)C1` [Compound 53]: the IC50 in experiment [3] was 2.9 nM; in experiment [4] (setting [7]), 4.2 nM; in experiment [5], 60 nM.
Take `CCC1(NC(=O)N2Cc3cc(OC)c(OC)cc3C2)C[C@H]2CN(CCc3c([nH]c4ccccc34)[C@@](C(=O)OC)(c3cc4c(cc3OC)N(C)[C@H]3C(O)(C(=O)OC)[C@H](OC(C)=O)[C@]5(CC)C=CCN6CC[C@]43[C@@H]65)C2)C1` (some centres unmarked) [Compound 54]: the IC50 worked out at 0.42 nM in experiment [3] (Mus musculus, L1210); 0.45 nM in experiment [4] (Homo sapiens, HCT-116, 72 h); 5.2 nM in experiment [5] (Homo sapiens, HCT-116/VM46).
Take `CC[C@]1(NC(=O)N2Cc3ccc(NC(=O)c4ccccn4)cc3C2)C[C@H]2CN(CCc3c([nH]c4ccccc34)[C@@](C(=O)OC)(c3cc4c(cc3OC)N(C)[C@H]3[C@@](O)(C(=O)OC)[C@H](OC(C)=O)[C@]5(CC)C=CCN6CC[C@]43[C@@H]65)C2)C1` [Compound 55]: the IC50 in experiment [3] is 0.37 nM; in experiment [4] (setting [7]), 0.49 nM; in experiment [5] it was 3.6 nM.
As to `CC[C@]1(NC(=O)N2Cc3ccc(NC(=O)c4cccnc4)cc3C2)C[C@H]2CN(CCc3c([nH]c4ccccc34)[C@@](C(=O)OC)(c3cc4c(cc3OC)N(C)[C@H]3[C@@](O)(C(=O)OC)[C@H](OC(C)=O)[C@]5(CC)C=CCN6CC[C@]43[C@@H]65)C2)C1` [Compound 56], the values for the IC50 in experiment [3], in experiment [4] (setting [7]) and in experiment [5] were 0.48 nM, 0.33 nM and 6.6 nM, respectively.
As for `CC[C@]1(NC(=O)N2Cc3ccc(NC(=O)c4ccncc4)cc3C2)C[C@H]2CN(CCc3c([nH]c4ccccc34)[C@@](C(=O)OC)(c3cc4c(cc3OC)N(C)[C@H]3[C@@](O)(C(=O)OC)[C@H](OC(C)=O)[C@]5(CC)C=CCN6CC[C@]43[C@@H]65)C2)C1` [Compound 57], the IC50 in experiment [3] worked out at 0.27 nM; in experiment [4] (setting [7]), 0.28 nM; in experiment [5] it was 10.4 nM.
With `CC[C@]1(NC(=O)N2Cc3ccc(NC(=O)c4cncnc4)cc3C2)C[C@H]2CN(CCc3c([nH]c4ccccc34)[C@@](C(=O)OC)(c3cc4c(cc3OC)N(C)[C@H]3[C@@](O)(C(=O)OC)[C@H](OC(C)=O)[C@]5(CC)C=CCN6CC[C@]43[C@@H]65)C2)C1` [Compound 59], the IC50 in experiment [3] came to 0.51 nM; in experiment [4] (setting [7]) it was 0.6 nM; in experiment [5] it was 8.8 nM.
On to `CC[C@]1(NC(=O)N2Cc3ccc(NC(=O)c4ccnnc4)cc3C2)C[C@H]2CN(CCc3c([nH]c4ccccc34)[C@@](C(=O)OC)(c3cc4c(cc3OC)N(C)[C@H]3[C@@](O)(C(=O)OC)[C@H](OC(C)=O)[C@]5(CC)C=CCN6CC[C@]43[C@@H]65)C2)C1` [Compound 62], for which the half-maximal inhibitory concentration (IC50) in experiment [3] worked out at 0.69 nM; in experiment [4] (setting [7]), 0.64 nM; in experiment [5], 50 nM.
